# Test results taken from patent US5608143A, “External regulation of gene expression” (E. I. Du Pont de Nemours and Company, priority 1994, dated 1997).
# Experiments:
# 2-1 gene (In 2-1 mRNA) = assay: RNA slot blot / Northern analysis of 2-1 mRNA in roots of chemically treated corn; assay type: in vivo, corn (Missouri 17); details: six hours, corn roots; for In 2-1: net amount of radioactivity hybridizing to treated RNA after subtraction of untreated RNA: 200 mg/l hydroponic, slot blot 2 μg total RNA
# Procedure: Missouri 17 corn seeds were surface sterilized by soaking them in a solution of 10% commercial bleach and 0.1% sodium dodecylsulfate (SDS) for 30 minutes. Seeds were then rinsed thoroughly in a buchner funnel with sterile distilled water and prepared for germination by placing them onto 5-6 layers of moist sterile paper towels in a 8"×10" glass baking tray. The tray was covered with aluminum foil and placed in the dark in a 30° C. incubator for 48-72 hours to allow the seeds to germinate. After germination, seedlings were grown hydroponically in an apparatus consisting of a sheet of 8 mesh stainless steel wire gauze suspended over the top of a 2 liter glass beaker filled with sterile half strength Hoagland's solution (referred to 0.5× Hoagland's) so that the roots extended through the mesh and into the media. The hydroponic apparatus was aerated by introducing humidified air into the bottom of the beaker with a gas diffusing stone commonly used in tropical fish aquariums. The apparatus was covered with a loose-fitting sheet of aluminum foil and placed in a reach-in growth chamber illuminated by both fluorescent and incandescent lamps at an intensity of 4400 lux. Seedlings were grown at 28° C., 75% relative humidity using a 16 hour day/8 hour night cycle. After two days, the foil was removed and plants were grown for an additional 5-6 days. Any 0.5× Hoagland's lost to evaporation was replenished every 2-3 days. […] Plants were then allowed to grow for six additional hours prior to harvest.
# A nitrocellulose filter (Schlicher and Schull BA-85) was wetted by soaking it twice for 10 minutes in water, followed by a 10 minute soak in 1M ammonium acetate. The filter was then placed into a Slot Blot apparatus (Schleicher and Schuell, Inc., Keene, N.H. 03431, CAT #SRC072/0). […] Forty pl of denaturation buffer (30% formaldehyde, 100 mM sodium phosphate pH 6.8) were added to each sample and all samples were then incubated at 65° C. for 20-30 minutes and quick-cooled in an ice slurry for 5 minutes. Thirty μl of 4M ammonium acetate were added to each sample and the 150 μl samples were added to slots in the blotting cell with the aid of a 10-15 mm Hg vacuum. The filter was removed from the blotting cell, air dried and baked for 2 hours at 70° C. in vacuo.
# The filter was cut into six pieces such that each piece had one slot cox.raining RNA from each of the three treatments described above. One of the filter pieces was incubated with 10 ml of prehybridization buffer (50% deienized formamide, 5× SSC, 5× Denhardt's, 100 μg/ml denatured calf thymus DNA, 20 μg/ml homopoly(A), 40 mM sodium phosphate pH 6.8 and 0.5% BSA) in a heat-sealable bag for 6 hours at 42° C. with occasional mixing. The filter piece was then hybridized with nick-translated pIn 2-1. This was performed by discarding the prehybridization solution from the bag and replacing it with 2.5 ml of hybridization buffer (50% deionized formamide, 5× SSC, 100 μg/ml denatured calf thymus DNA, 20 μg/ml homopoly(A) and 40 mM sodium phosphate, pH 6.8) containing 1.25×10^7 cpm of nick translated 2-1 plasmid described above. Nick-translated plasmid was denatured by boiling for 10 minutes followed by quick-cooling on ice. The filter was then hybridized overnight at 42° C. with occasional mixing.
# [1] = tested on: tobacco leaf pieces (callus formation); assay: Callus formation of leaf pieces from kanamycin-resistant tobacco shoots on selective medium; assay type: cell-based; details: sixteen kanamycin-resistant shoots, three weeks; 10 ppb chlorsulfuron and/or 100 ppm D5293
# Excerpt: Callus formation was scored as plus or minus after three weeks of growth.
# 2-2 gene (In 2-2 mRNA) = assay: RNA slot blot / Northern analysis of 2-2 mRNA in roots of chemically treated corn; assay type: in vivo, corn (Missouri 17); details: 200 mg/l hydroponic, six hours, corn roots, slot blot 2 μg total RNA
# Procedure: Details of the techniques used to perform the procedures used in Example 2 are presented in Example 1. The cDNA library made using poly(A)^+ RNA from the roots of N-(aminocarbonyl)-2-chlorobenzenesulfonamide-treated Missouri 17 corn plants (described in Example 1) was analyzed for additional cDNA clones representing mRNAs induced by substituted benzenesulfonamides. […] This colony was designated In 2-2.
# A small scale plasmid preparation was performed on the plasmid contained in colony In 2-2. This plasmid was designated pIn 2-2. An aliquot of pIn 2-2 was nick translated as described earlier. A slot blot containing total RNA from N-(aminocarbonyl)-2-chlorobenzenesulfonamide-treated and untreated roots was prepared and probed with nick-translated pIn 2-2 as described for pIn 2-1 in Example 1.
# The pIn 2-2 small scale plasmid preparation was digested to completion with Pst I and analyzed by agarose gel electrophoresis. The cDNA insert of the plasmid was excised by Pst I as a single 1200 bp fragment. Nick-translatedpIn 2-2 was used to probe a Northern blot of RNA from both untreated and N-(aminocarbonyl)-2-chlorobenzenesulfonamide-treated roots.
# (§1) The ability at various substituted benzenesulfonamides and related compound to induce the expression of the 2-1, 2-2, and 5-2 genes of Missouri 17 corn was evaluated. Corn seeds were germinated and grown hydroponically in 2 liter beakers as described in Example 1. On the tenth day, plants were transferred into fresh 0.5× Hoagland's solution containing the chemical to be tested. Root tissue was harvested from the plants after six hours of chemical treatment, quick-frozen by immersion in liquid N2, and stored at -80° C. until analyzed.
# (§2) Details of the RNA isolation and slot blot analysis procedures are presented in Example 1. Total RNA was prepared from the root tissue of plants that had been treated with various chemicals using the previously described guanidine thiocyanate procedure. Replicate blots, each consisting of 2 μg of total RNA from tissues treated with each of the chemicals shown in tables 8 and 9, were prepared on nitrocellulose membranes using a Minifold II® Slot-blotter (Schleicher & Schuell) following the manufacturer's recommeneded procedure. Replicate blots were prehybridized and hybridized with cDNA probes made by nick translation of the purified cDNA inserts from plasmid pIn 2-1, pIn 2-2-3, and pIn 5-2. Slot blots were washed as described in Example 1 and exposed to Kodak X-OMAT XAR-5 film for 24 hours at -80° C. using a single Du Pont Lightning Plus intensifying screen. Film was developed using a Kodak X-OMAT film processor. The abililty of a chemical to induce the mRNA encoded by the three inducible genes was evaluated in one of two ways. Qualitative evaluation was performed by direct visual comparison of the autoradiographic signal intensities on the films for the hybridization of each probe to the different RNA samples. Quantitative evaluation was performed by cutting each slot containing hybridized RNA from the blot, immersing it in 2 ml of Du Pont ECONOFLUOR® scintillation cocktail and counting the radioactivity in each slot in a scintillation counter. The net amount of radioactivity hybridizing to N-(aminocarbonyl)-2-chlorobenzenesulfonamide-treated RNA after subtraction of radioactivity hybridizing to untreated RNA is presented in Table 15.
# 5-2 gene (In 5-2 mRNA) = assay: RNA slot blot / Northern analysis of 5-2 mRNA in roots of chemically treated corn; assay type: in vivo, corn (Missouri 17); details: 200 mg/l hydroponic, six hours, corn roots, slot blot 2 μg total RNA
# Procedure: Details of the techniques used to perform Example 3 are presented in Example 1. The cDNA library made from poly (A)+ RNA from the roots of N-(aminocarbonyl)-2-chlorobenzenesulfonamide-treated Missouri 17 corn plants described in Example 1 was analyzed for additional cDNA clones representing N-(aminocarbonyl)-2-chlorobenzenesulfonamide-induced mRNAs. […] This colony was designated In 5-2.
# A small scale plasmid preparation was performed on an overnight culture of In 5-2 and an aliquot of the plasmid, designated pIn 5-2, was nick-translated as described earlier. Slot blot analysis was performed as described in Example 1 using nick-translated In 5-2 plasmid. […] This plasmid was designated pIn 5-2.
# An aliquot of the small scale plasmid preparation of pIn 5-2 was digested to completion with PSt I and analyzed by agarose gel electrophoresis. The cDNA insert of the plasmid was excised as a single 420 bp Pst I fragment. Plasmid pin 5-2 was nick-translated and used to probe a Northern blot of RNA from both untreated and N-(aminocarbonyl)-2-chlorobenzenesulfonamide-treated roots.
# as §1, §2
# 2-2 corn promoter = assay: Transient GUS expression assay, 2-2 corn promoter/GUS constructions in transformed rice protoplasts
# Procedure: Cell counts were made with a Fuchs-Rosenthal hemocytometer.
# Protoplasts were transformed as follows: Multiple aliquots of the protoplasts (5-10×10^6 cells) were centrifuged gently (80 g) for 4 minutes in sterile tubes. The supernatant was discarded and the cells were resuspended in 1 ml of Kern's F, pH 5.8 buffer. Ten μg of transforming DNA in less than 15 μl of TE pH 8.0 were added per million protoplasts. […] The resulting protoplast cell suspension was mixed gently and incubated at room temperature for 20 minutes. A volume of 13-15 mls of Kren's F, pH 7.0 solution was then added to dilute out PEG.
# The transformed protoplasts were collected by centrifugation at 80 g for 4 minutes. The supernatant was discarded and the protoplasts were resuspended in 2.0 ml of Kren's F, pH 5.8. The protoplast sample was divided into two 1 ml aliquots. One ml of protoplast medium was added to one aliquot of the protoplasts, while 1 ml of the protoplast medium containing 100 μg/ml N-(aminocarbonyl)-2-chlorobenzenesulfonamide was added to the other aliquot.
# The inducibility of the recombinant GUS genes whose expression were controlled by 2-1 corn gene promoter and downstream sequences were determined by measuring the level of the β-glucuronidase enzyme activity in protoplasts cultured in the presence and absence of N-(aminocarbonyl)-2-chlorobenzenesulfonamide. GUS activity was assayed by harvesting protoplasts in a clinical centrifuge at 80 g for 5 minutes, and resuspending them in 1.0 ml 1× GUS lysis buffer (50 mM sodium phosphate pH 7.0, 10 mM β-mercaptoethanol, 10 mM EDTA, 0.1% Triton X-100, 0.1% N-lauroylsarcosine). The suspension containing the lysed protoplasts was vortexed and spun at top speed in a table top clinical centrifuge for 5 minutes. Eighteen μl of the supernatant was transferred to a tube containing 782 μl of water for determination of protein content in the protoplast lysate. […] A protein concentration curve was prepared using bovine serum albumin as a standard. The protein content, so determined, was multiplied by a factor of 7.2 to give the protein content in 130 μl of extract (the amount of extract present in a single time point of the assay-see below). Of the remaining supernatant,585 μl was transferred to a fresh tube.
# The substrate for the GUS assay was 4-methyl-umbelliferyl-β-D-glucuronide (4-MUG) and was obtained from Sigma Chemical Co., St. Louis Mo. […] 4-MUG was prepared as a 10 mM stock in 1× GUS buffer. Sixty-five μl of a pre-warmed (37° C.) 10 mM 4-MUG stock was added to the pre-warmed 585 μl protoplast extract, and a 100 μl aliquot of the resulting mixture was transferred to a well of a 24-well microtiter dish containing 0.9 ml of 0.2M Na2 CO3. Similar aliquots are removed at 1 hour, 2 hour, and 3 hours. The 4-MU flourescence of individual samples, from each time point was determined quantitatively using an excitation wavelength of 365 nm and measuring flourescence at an emission wavelength of 455 nm. […] GUS activity in the transient assay was expressed as picomoles of 4-MU produced per μg protein per hour.
# [2] = tested on: metabolism of chlorsulfuron and metsulfuron methyl; details: wheat and corn following application of the antidote; cited from earlier work
# [3] = tested on: petunia P6.1 gene (P6 RNA); assay: Northern / RNAse protection analysis of P6 RNA in roots of chemically treated petunia; assay type: in vivo, Petunia (Mitchell); details: hydroponic 100 mg/l, roots
# Excerpt: Petunia (Mitchell) seeds were germinated in soil and allowed to grow for one month under standard greenhouse conditions. Plants were transferred to a hydroponic growth apparatus in a greenhouse using foam plugs to support the plants. These plugs were then placed in holes in a wooden bDard and placed over a stainless steel sink containing 0.5× Hoagland's solution. The solution was aerated using standard aquarium pumps, and was changed weekly. After one month of hydroponic growth, plants were transferred to stainless steel trays containing either fresh 0.5 × Hoagland's or 0.5× Hoagland's containing 0.2 g per liter of N-(aminocarbonyl)-2-chlorobenzenesulfonamide. Root tissue was harvested after six hours of treatment.
# Ten μg (2 mg/ml) of total RNA from control and N-(aminocarbonyl)-2-chlorobenzenesulfonamide-treated roots was denatured by adding 10 μl of deionized formamide, 3.5 μl formaldehyde, 4 μl 5× MEN buffer (40 mM MOPS pH 7.0, 10 mM sodium acetate, 1 mM EDTA) and incubating at 65° C. for 15 minutes. […] RNA was stained in the presence of 10 mM sodium phosphate pH 6.8 and 1 μg/ml acridine orange for 30 minutes. The gel was then desrained in 10 mM sodium phosphate for 30 minutes, and the RNA was visualized on a UV transilluminator, photographed, and blotted to nitrocellulose (Millipore HAWP). To do this, Whatman 3MM paper was placed below the gel on a glass plate so that the ends of the paper extended into 20× SSC. A sheet of nitroccllulose which had been prewet with 2× SSC was placed on top of the gel followed by a layer of Whatman 3MM, then a stack of paper towels 10 cm high. A glass plate and weight were then placed on top of the stack. Following an overnight transfer, the filter was rinsed briefly in 2× SSC, air dried, and baked in vacuo for 2 hours at 80° C.
# The filters were prehybridized for 5 hours in plastic dishes at 42° C. using the hybridization buffer described earlier. Plasmid p6.1 was nick-translated by combining 1 μg of DNA with 5 μl 10× buffer (0.5M Tris-HCl pH 8.0, 0.1M MgSO4, 10 mM DTT and 0.5 mg/ml BSA), 5 μl 0.3 uM d(AGT)TP, 5 μl ^32 P-dCTP (Amersham, 10 mCi/ml, 400 Ci/mmole), 1 μl DNA polymerase 1 (5 U/μl, Boehringer-Mannheim), and 1 μl of 0.1 μg/ml DNAse 1 in a total volume of 50 μl. […] The reaction was then incubated for 5 minutes at 70° C., and labelled DNA was separated from unincorporated nucleotides by Sephadex® G-50 column chromatography. The prehybridization solution was removed from the bag and replaced with hybridization solution containing nick-translated plasmid P6.1 DNA at a concentration of 1×10^6 cpm/ml. […] Filters were washed twice with 2× SSC, 0.1% SDS at 42° C. followed by two washes in 0.1× SSC, 0.1%SDS at 60° C.
# RNA probes complementary to the coding strands in both P644 and P645 were synthesized in the following reaction: 50 uCi ^32 P-UTP, 2 μl 5× transcription buffer (200 mM Tris-HCl pH 7.5, 30 mM MgCl2, 10 mM spermidine), 0.5 μl 0.2M DTT, and 0.5 μl of either T3 polymerase (plasmid P645) or T7 polymerase (plasmid P644). Incubation was carried out at 40° C. for 1 hour. The DNA template was hydrolyzed for 15 minutes at 37° C. by addition of 30 μl H2 O, 1 μl RNAsin, 2,5 μl vanadyl ribonucleoside complex, 6 μl 5× transcription buffer and 1 μl DNAse 1 (1 mg/ml) to the transcription reaction. The reaction was extracted with an equal volume of phenol:chloroform (1:1 v/v). The RNA was precipitated once with ethanol in the presence of ammonium acetate and once with ethanol in the presence of sodium acetate. The pellets were dissolved in 25 μl of TE. Ten μg of RNA from untreated and N-(aminocarbonyl)-2-chlorobenzenesulfonamide-treated plants were mixed with 1×10^6 cpm of each of the two probes in 30 ul of hybridization buffer (40 mM PIPES pH 6.7, 0.4M NaCl, 1 mM EDTA). […] Single stranded RNA was selectively digested by adding 300 μl RNAse A and RNAse T1 to 40 μg/ml and 2 μg/ml respectively in 10 mM Tris-HCl pH 7.5, 5 mM EDTA, and 300 mM NaCl.
# [4] = rice protoplasts transformed with pTDS133, compound at 100 μg/l
SMILES,AVE. INDUCTION (2-2 corn promoter; [4]),Assay 3 (induction of GUS activity) (2-2 corn promoter; [4]),further results
"NS(=O)(=O)c1ccccc1Cl [2-chlorobenzenesulfonamide, reference compound]",–,–,"hybridization of pIn 2-1 to root RNA (RNA slot blot) (2-1 gene (In 2-1 mRNA); hydroponic 0.2 g/liter): extremely weakly, if at all"
"COc1nc(C)nc(NC(=O)NS(=O)(=O)c2ccccc2Cl)n1 [Chlorsulfuron, chlorsulfuron, reference compound]",–,–,Callus formation (shoots whose leaf pieces formed callus / shoots tested) [1]: 12/16
CCCCNC(=O)NS(=O)(=O)c1ccccc1P(=O)(OCC)OCC [Compound 1],–,–,In 2-1: net amount of radioactivity hybridizing to treated RNA after subtraction of untreated RNA (2-1 gene (In 2-1 mRNA)): 204; In 2-2: net amount of radioactivity hybridizing to treated RNA after subtraction of untreated RNA (2-2 gene (In 2-2 mRNA)): 332; In 5-2: net amount of radioactivity hybridizing to treated RNA after subtraction of untreated RNA (5-2 gene (In 5-2 mRNA)): 47
"CCCCNC(=O)NS(=O)(=O)c1cccc(Cl)c1S(=O)(=O)N(C)C [Compound 2 (Table 15), N'-[2-(n-butylaminocarbonyl)]-6-chloro-N,N-dimethyl-1,2-benzene-disulfonamide]",–,–,ability to induce GUS activity in transformed protoplasts (rank) (2-2 corn promoter; rice protoplasts transformed with pTDS133): most active
NC(=O)NS(=O)(=O)c1ccccc1Cl [Compound 5],7.75,43,In 2-1: net amount of radioactivity hybridizing to treated RNA after subtraction of untreated RNA (2-1 gene (In 2-1 mRNA)): 296; In 2-2: net amount of radioactivity hybridizing to treated RNA after subtraction of untreated RNA (2-2 gene (In 2-2 mRNA)): 136; In 5-2: net amount of radioactivity hybridizing to treated RNA after subtraction of untreated RNA (5-2 gene (In 5-2 mRNA)): 59; Assay 1 (induction of GUS activity) (2-2 corn promoter; [4]): 8.7; Assay 2 (induction of GUS activity) (2-2 corn promoter; [4]): 6.8
CCCCNC(=O)NS(=O)(=O)c1ccoc1C(=O)OC [Compound 14],27.3,27.3,–
CCCCNC(=O)NS(=O)(=O)c1cccc(C)c1S(=O)(=O)CCC [Compound 15],24,24.1,–
CCCCNC(=O)NS(=O)(=O)c1ccccc1S(=O)(=O)N(C)C(F)(F)C(F)F [Compound 16],30,30.2,–
CNC(=O)NS(=O)(=O)c1c(C)cccc1OC [Compound 17],16.6,16.6,–
CN(C)C(=O)c1cccnc1S(=O)(=O)NC(N)=O [Compound 18],1.6,1.6,–
CCCCNC(=O)NS(=O)(=O)c1cnccc1Cl [Compound 19],5.2,5.2,–
CCCNC(=O)NS(=O)(=O)c1ccccn1 [Compound 20],38.6,38.6,–
CC(C)(C)NC(=O)NS(=O)(=O)c1ccc(Cl)nc1Cl [Compound 21],24.2,24.2,–
"C=CCN(CC=C)C(=O)C(Cl)Cl [N,N-diallyl-2,2-dichloroacetamide]",–,–,increases in the metabolism rates of chlorsulfuron and metsulfuron methyl [2]: 2 to 5 fold
"O=C(O)c1ccccc1O [Salicylic acid, reference compound]",–,–,"time at which P6 RNA level declined to that seen in untreated plants [3]: ≤ 6 h; time at which maximal levels of P6 RNA were seen ([3]; sampled at 2, 4, 6 and 22 hours): ≤ 2 h"
N#CCON=C(C#N)c1ccccc1 [cyometrinil],–,–,increases in the metabolism rates of chlorsulfuron and metsulfuron methyl [2]: 2 to 5 fold
O=C1OC(=O)c2cccc3cccc1c23 [napthalic anhydride],–,–,increases in the metabolism rates of chlorsulfuron and metsulfuron methyl [2]: 2 to 5 fold
